Experimental data taken from the supplement of paper PMC13207355.

How the values were obtained:
Details in all cases: exposure time: 72 h
E57 [1] = patient-derived glioblastoma stem cells of mesenchymal subtype; test: surviving fraction (nuclei count normalised to DMSO); higher = more cells surviving (less toxic)
E28 [2] = patient-derived glioblastoma stem cells of classical subtype; test: as above
E31 [3] = patient-derived glioblastoma stem cells of proneural subtype; test: as above
E34 [4] = patient-derived glioblastoma stem cells of proneural subtype; test: as above
E21 [5] = patient-derived glioblastoma stem cells of mesenchymal subtype; test: as above
FT3469 [6] = normal neural stem cell line; test: as above
E13 [7] = patient-derived glioblastoma stem cells of classical subtype; test: as above
E57 [8] = test: phenotypic distance (Euclidean, principal components) from DMSO controls (arbitrary units); higher = stronger morphological change
E28 [9] = test: as above
E31 [10] = test: as above
E34 [11] = test: as above
E21 [12] = test: as above
FT3469 [13] = test: as above
E13 [14] = test: as above
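For phenotypic distance (Euclidean, principal components) from DMSO controls in this document: cell Painting imaging in 384-well plates, CellProfiler features reduced to at least 20 principal components, Euclidean distance versus same-plate DMSO vehicle wells (0.1% v/v), median over six images per well.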
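For surviving fraction (nuclei count normalised to DMSO) in this document: nuclei counted by high-content imaging of Hoechst-stained cells in laminin-coated 384-well plates, relative to 0.1% DMSO vehicle wells, with staurosporine as cell-death control.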

O=C(/C=C\n1cnc(-c2cc(C(F)(F)F)cc(C(F)(F)F)c2)n1)NNc1cnccn1 [Selinexor]
Details	phenotypic distance	surviving fraction
E13 [7], 4.1 nM	–	0.654
E13 [7], 12.3 nM	–	0.572
E13 [7], 37 nM	–	0.418
E13 [7], 111.1 nM	–	0.355
E13 [7], 333.3 nM	–	0.384
E13 [7], 1000 nM	–	0.31
E13 [7], 3000 nM	–	0.242
E13 [14], 4.1 nM	1.6	–
E13 [14], 12.3 nM	2.09	–
E13 [14], 37 nM	3.06	–
E13 [14], 111.1 nM	3.35	–
E13 [14], 333.3 nM	3.49	–
E13 [14], 1000 nM	3.23	–
E13 [14], 3000 nM	4.73	–
E21 [5], 4.1 nM	–	0.753
E21 [5], 12.3 nM	–	0.729
E21 [5], 37 nM	–	0.667
E21 [5], 111.1 nM	–	0.572
E21 [5], 333.3 nM	–	0.541
E21 [5], 1000 nM	–	0.51
E21 [5], 3000 nM	–	0.315
E21 [12], 4.1 nM	2.91	–
E21 [12], 12.3 nM	3.17	–
E21 [12], 37 nM	3.01	–
E21 [12], 111.1 nM	3.44	–
E21 [12], 333.3 nM	3.53	–
E21 [12], 1000 nM	3.96	–
E21 [12], 3000 nM	4.26	–
E28 [2], 4.1 nM	–	0.643
E28 [2], 12.3 nM	–	0.605
E28 [2], 37 nM	–	0.441
E28 [2], 111.1 nM	–	0.4
E28 [2], 333.3 nM	–	0.327
E28 [2], 1000 nM	–	0.373
E28 [2], 3000 nM	–	0.246
E28 [9], 4.1 nM	1.34	–
E28 [9], 12.3 nM	1.88	–
E28 [9], 37 nM	2.76	–
E28 [9], 111.1 nM	2.65	–
E28 [9], 333.3 nM	2.86	–
E28 [9], 1000 nM	2.69	–
E28 [9], 3000 nM	3.06	–
E31 [3], 4.1 nM	–	0.703
E31 [3], 12.3 nM	–	0.51
E31 [3], 37 nM	–	0.444
E31 [3], 111.1 nM	–	0.38
E31 [3], 333.3 nM	–	0.311
E31 [3], 1000 nM	–	0.331
E31 [3], 3000 nM	–	0.239
E31 [10], 4.1 nM	2.16	–
E31 [10], 12.3 nM	2.72	–
E31 [10], 37 nM	2.72	–
E31 [10], 111.1 nM	3.08	–
E31 [10], 333.3 nM	2.98	–
E31 [10], 1000 nM	2.55	–
E31 [10], 3000 nM	3.17	–
E34 [4], 4.1 nM	–	0.782
E34 [4], 12.3 nM	–	0.833
E34 [4], 37 nM	–	0.867
E34 [4], 111.1 nM	–	0.547
E34 [4], 333.3 nM	–	0.582
E34 [4], 1000 nM	–	0.569
E34 [4], 3000 nM	–	0.582
E34 [11], 4.1 nM	1.14	–
E34 [11], 12.3 nM	1.28	–
E34 [11], 37 nM	1.6	–
E34 [11], 111.1 nM	1.64	–
E34 [11], 333.3 nM	1.71	–
E34 [11], 1000 nM	1.72	–
E34 [11], 3000 nM	2.17	–
E57 [1], 4.1 nM	–	0.554
E57 [1], 12.3 nM	–	0.554
E57 [1], 37 nM	–	0.43
E57 [1], 111.1 nM	–	0.286
E57 [1], 333.3 nM	–	0.313
E57 [1], 1000 nM	–	0.32
E57 [1], 3000 nM	–	0.244
E57 [8], 4.1 nM	2.64	–
E57 [8], 12.3 nM	2.17	–
E57 [8], 37 nM	2.78	–
E57 [8], 111.1 nM	3.97	–
E57 [8], 333.3 nM	4.39	–
E57 [8], 1000 nM	5.44	–
E57 [8], 3000 nM	6.2	–
FT3469 [6], 4.1 nM	–	0.614
FT3469 [6], 12.3 nM	–	0.659
FT3469 [6], 37 nM	–	0.616
FT3469 [6], 111.1 nM	–	0.614
FT3469 [6], 333.3 nM	–	0.692
FT3469 [6], 1000 nM	–	0.556
FT3469 [6], 3000 nM	–	0.612
FT3469 [13], 4.1 nM	1.68	–
FT3469 [13], 12.3 nM	2.14	–
FT3469 [13], 37 nM	1.85	–
FT3469 [13], 111.1 nM	1.78	–
FT3469 [13], 333.3 nM	2.12	–
FT3469 [13], 1000 nM	1.48	–
FT3469 [13], 3000 nM	1.57	–
